This is an account of results in US20080287915A1, “Tissue engineering system with scleral lens” (Boston Foundation for Sight, priority 2007, published 2008).

Read-outs that look alike come from different tables or passages of the source.

Assay [1] concerns corneal neovascularization. The following applies: solution of 1% AVASTIN and 0.01% BAK, one drop, four times per day for at least thirty days, topical; cited from earlier work.
The subject of assay [2] is corneal neovascularization. Kind of assay: AVASTIN in the scleral lens drug delivery system to treat corneal neovascularization. Type of assay: in vivo. An excerpt:
This study using AVASTIN® off-label, topically, to treat corneal neovascularization was repeated using the scleral lens drug delivery system. […] This therapeutic effect was achieved without BAK. Instead, the expanded pre-corneal tear film of the scleral lens drug delivery system provided adequate bioavailability of the drug without exposing the cornea to BAK.

bevacizumab [AVASTIN®]: the “therapeutic effect on corneal neovascularization” value was “Therapeutic effect was reported” in assay [1] and “achieved a therapeutic effect by thirty days with continued benefit over the subsequent sixty days” in assay [2] (one drop of 1% AVASTIN added to expanded pre-corneal tear film of artificial tears in a scleral lens twice per day, without BAK). Moreover, the “regression of corneal neovascularization (clinical photos, FIG. 5)” value in assay [2] (scleral lens drug delivery system) is given as “regression of corneal neovascularization”.
